In data set [1] the test system is Plasmodium falciparum Pf3D7^0087/N9. Briefly: P. falciparum in vivo efficacy assay (humanised mouse model). As to conditions: NODscidIL2Rγ mice engrafted with human erythrocytes; for ED90 mean: parasitemia by microscopy and flow cytometry; for AUCED90 mean: blood exposure (AUC0-23h after first dose) at ED90. The procedure: Antimalarial in vivo efficacy was determined using the P. falciparum mouse model following the procedure described in: Jimenez-Díaz, M. B., Mulet, T., Viera, S., Gómez, V., Garuti, H., Ibañez, J., Alvarez-Doval, A., Shlutz, D. L., Martinez, A., Improved Murine Model Of Malaria Using Plasmodium falciparum (Competent Strains and Non-Myelodepleted NOD-scid IL2R_null Mice Engrafted with Human Erythrocytes) Antimicrob. Agents Chemother 2009, 53 (10), 4533-4536.
The goal of the study was to assess the therapeutic efficacy of the examples against Plasmodium falciparum Pf3D7^0087/N9 growing in peripheral blood of NODscidIL2Ry^0087/N9 mice engrafted with human erythrocytes. The levels of the examples were measured in serial peripheral blood samples obtained from each mouse of the efficacy experiment during the first 23 hrs after the first dose. The area under the curve of levels of compound is used to estimate the exposure in blood during the first 23 hours after the first administration (AUC0-23h).
The effect of Examples 1, 2, 5, 7, 8 and 10 on P. Falciparum Pf3D7^0087/N9 was assessed by microscopy and flow cytometry.

Another data set is described as follows: physchem. As to conditions: Fasted State Simulated Intestinal Fluid (FaSSIF), pH 6.5, fassif, thermodynamic from solid.
Data set [2] is described as follows: Kinetic aqueous solubility in PBS pH 7.4 (HPLC-CAD). The format is physicochemical. Conditions: PBS pH7.4, room temperature, 1 hour equilibration; for solubility at 1 h / solubility kinetic at 1 h: phosphate buffered saline (PBS), pH 7.4, aqueous buffer, kinetic from dmso stock; for solubility kinetic at 1 h: read-out: Concentration; for Solubility: from DMSO stock. The procedure: The kinetic aqueous solubility was measured at room temperature after 1 hour equilibration in aqueous phosphate buffered saline (PBS) at pH7.4, and is determined by measuring the concentration of solute in solution after precipitation from DMSO stock solution.
The sample plate was left to equilibrate for 1 hour at room temperature.
Vacuum filtration was applied to filter the solution into a 96-well collection plate.
The filtrate was analysed by HPLC-CAD (Charged Aerosol Detector).
Calibration standards of Ketoconazole and Primidone were prepared by serial dilutions in DMSO at concentrations ranging from 0.016 to 4.5 mg/ml to produce the calibration curve.

Data set [3] deals with P. falciparum 3D7A strain parasitized red blood cells. In words: P. falciparum growth inhibition assay Sybr Green. The format is cell-based, Plasmodium falciparum. Conditions: for IC50: Plasmodium falciparum, Erythrocyte, 48 h. The method, then: P. falciparum Growth Inhibition Assay Sybr Green
The parasite growth is determined measuring the staining of the DNA's minor groove with SYBR Green I, which labels the remaining parasites. The DNA-SYBR complex absorbs light reaching the peak at λ=498 nm and emits at a peak of λ=522 nm.
Briefly, a culture of 3D7A strain parasitized red blood cells (RBC) (0.5% parasitemia and 2% haematocrit in RPMI-1640 supplemented with 25 ml albumax and […] hypoxanthine for 500 ml) is exposed to 3-fold serial dilutions of the compound. Plates are incubated 48 h at 37° C., 5% CO2, 5% O2, 90% N2. At 48 h of incubation, SyberGreen I solution (2×) is added and plates are incubated for 30 minutes at 37° C., 5% CO2, 5% O2, 90% N2 and then plates are frozen at −80° C. Then plates are read in the EnVision (EnVision Multilabel Plate Reader, Perkin Elmer). Data (pIC50) are generated by ActivityBase (IDBS) and graphs are checked by Spotfire.
Inhibition of parasite growth in whole cell assay (infected human eritrocites) in vitro is directly linked to reduction of parasitemia in vivo.

The nature of data set [4]: Equilibrium solubility in Fasted State Simulated Intestinal Fluid (FaSSIF). Conditions: FaSSIF pH 6.5, room temperature, 4 hour equilibration, dynamic range 1-1000 μg/ml.
[5] abbreviates: read-out: Average value pIC50, average (converted), 48 h incubation, SYBR Green I readout.
The mark [6] stands for this setting: read-out: Pf3D7 pIC50, range of values (converted), 48 h incubation, SYBR Green I readout.
Setting [7] is: average, 48 h incubation, SYBR Green I readout, read-out: Average value pIC50 (converted).
Setting [8] is: range of values, 48 h incubation, SYBR Green I readout, read-out: Pf3D7 pIC50 (converted).
The mark [9] stands for this setting: average, 48 h incubation, SYBR Green I readout, dihydrochloride.
The mark [10] stands for this setting: range of values, 48 h incubation, SYBR Green I readout, dihydrochloride.
The mark [11] stands for this setting: average, 48 h incubation, SYBR Green I readout, ditrifluoroacetic acid salt.
The mark [12] stands for this setting: range of values, 48 h incubation, SYBR Green I readout, ditrifluoroacetic acid salt.

Data on ten compounds can be found in patent US20250122167A1, “Pyrazine Compounds Useful in the Treatment of Parasitic Protozoal Infection” (priority 2021, published 2025).

The structures appear in SMILES notation. Structures can show the parent of a compound that is named as a salt. Where two headings read alike, the source gives them in different places.

Broadly, the solubility is the concentration that dissolves in the medium under given conditions. One may read the Solubility as the concentration that dissolves in the medium under given conditions. A low value points to little dissolved substance.

Take `CC(C)(N)CNC(=O)c1ccc(-c2cncc(-c3cncc(F)c3)n2)cc1` [Example 7, N-(2-amino-2-methylpropyl)-4-(6-(5-fluoropyridin-3-yl)pyrazin-2-yl)benzamide, ditrifluoroacetic acid salt]: in data set [1], the ED90 mean came to 1.74 mg/kg and the AUCED90 mean was found to be 0.05 mg · h · mL^−1 · day^−1. Moreover, the solubility at 4 h in the data set “physchem” was 742 µg/mL. Besides, in data set [2], the solubility at 1 h is at least 84.4 µg/mL and the solubility kinetic at 1 h is at least 231 mM. Further, the IC50 in data set [3] (setting [5]) was 7.94 nM. Further, the IC50 in data set [3] (setting [6]) is 7.08 to 8.91 nM.

`NC1(CNC(=O)c2ccc(-c3cncc(-c4cncc(F)c4)n3)cc2)CC1` [Example 5, N-((1-aminocyclopropyl)methyl)-4-(6-(5-fluoropyridin-3-yl)pyrazin-2-yl)benzamide, dihydrochloride]: in data set [4] (dihydrochloride), the FaSSIF solubility was 380 µg/mL. In data set [1], this compound yielded an ED90 mean of 1.04 mg/kg and an AUCED90 mean of 0.13 mg · h · mL^−1 · day^−1. In addition, in data set [2], the solubility at 1 h was at least 114 µg/mL and the solubility kinetic at 1 h was at least 313 mM. Further, the IC50 in data set [3] (setting [5]) was 3.16 nM. Further, in data set [3] (setting [6]), the IC50 was 2.51 to 4.57 nM.

In data set [4], `NC1(CNC(=O)c2ccc(-c3cncc(-c4cncc(F)c4)n3)cc2)CCC1` [Example 4, N-((1-aminocyclobutyl)methyl)-4-(6-(5-fluoropyridin-3-yl)pyrazin-2-yl)benzamide] showed a FaSSIF solubility above 1000 µg/mL. The compound further displayed a Solubility in data set [2] of at least 129.8 µg/mL. Besides, the “Average value pIC50” value in data set [3] (average, 48 h incubation, SYBR Green I readout) is given as 8.60. For the same compound, the “Pf3D7 pIC50” value in data set [3] (range of values, 48 h incubation, SYBR Green I readout) is recorded as 8.54-8.76.

The compound `N[C@@H]1CCCC[C@@H]1NC(=O)c1ccc(-c2cncc(-c3cncc(F)c3)n2)cc1` [Example 10, N-((1S,2R)-2-aminocyclohexyl)-4-(6-(5-fluoropyridin-3-yl)pyrazin-2-yl)benzamide] showed a FaSSIF solubility in data set [4] of 941 µg/mL. In data set [1], this compound had an ED90 mean of 0.95 mg/kg and an AUCED90 mean of 0.20 mg · h · mL^−1 · day^−1. The Solubility in data set [2] is at least 136.2 µg/mL. In addition, the IC50 in data set [3] (setting [7]) is 3.16 nM. In addition, the IC50 in data set [3] (setting [8]) was 3.09 to 3.8 nM.

In data set [1] (dihydrochloride), `NC1(CNC(=O)c2ccc(-c3cncc(-c4cncc(F)c4)n3)cc2)CCC1` [Example 2, N-((1-aminocyclobutyl)methyl)-4-(6-(5-fluoropyridin-3-yl)pyrazin-2-yl)benzamide, dihydrochloride] came in with an ED90 mean of 1.14 mg/kg and an AUCED90 mean of 0.121 mg · h · mL^−1 · day^−1. The compound further had a solubility at 4 h in “physchem” of 398 µg/mL. In addition, in data set [2], the solubility at 1 h is at least 126 µg/mL and the solubility kinetic at 1 h was at least 335 mM. Also, the “Average value pIC50” value in data set [3] (setting [9]) is 8.50. For the same compound, in data set [3] (setting [10]), the “Pf3D7 pIC50” value is reported as 8.47-8.63.

For `N[C@@H]1CCCC[C@@H]1NC(=O)c1ccc(-c2cncc(-c3cncc(F)c3)n2)cc1` [Example 8, N-((1S,2R)-2-aminocyclohexyl)-4-(6-(5-fluoropyridin-3-yl)pyrazin-2-yl)benzamide, dihydrochloride], in data set [4] (dihydrochloride), the FaSSIF solubility was above 1000 µg/mL. In data set [1] (dihydrochloride), this compound gave an ED90 mean of 1.59 mg/kg and an AUCED90 mean of 0.26 mg · h · mL^−1 · day^−1. Further, in data set [2], the solubility at 1 h was at least 106 µg/mL and the solubility kinetic at 1 h is at least 271 mM. Besides, the “Average value pIC50” value in data set [3] (setting [9]) stood at 8.40. Moreover, the “Pf3D7 pIC50” value in data set [3] (setting [10]) is 8.33-8.6.

In turn, `N[C@@H]1CCCC[C@@H]1NC(=O)c1ccc(-c2cncc(-c3cncc(F)c3)n2)cc1` [Example 9, N-((1S,2R)-2-aminocyclohexyl)-4-(6-(5-fluoropyridin-3-yl)pyrazin-2-yl)benzamide, ditrifluoroacetic acid salt] had a solubility at 4 h in “physchem” of 789 µg/mL. For the same compound, in data set [2], the solubility at 1 h came to 115 µg/mL and the solubility kinetic at 1 h was found to be 293 mM. In addition, in data set [3] (setting [11]), the “Average value pIC50” value is given as 8.60. Moreover, in data set [3] (setting [12]), the “Pf3D7 pIC50” value is 8.53-8.60.

The compound `NC1(CNC(=O)c2ccc(-c3cncc(-c4cncc(F)c4)n3)cc2)CC1` [Example 6, N-((1-aminocyclopropyl)methyl)-4-(6-(5-fluoropyridin-3-yl)pyrazin-2-yl)benzamide, ditrifluoroacetic acid salt] had a solubility at 4 h in the data set “physchem” of 339 µg/mL. For the same compound, in data set [2], the solubility at 1 h was at least 200 µg/mL and the solubility kinetic at 1 h was at least 549 mM.

Regarding `NC1(CNC(=O)c2ccc(-c3cncc(-c4cncc(F)c4)n3)cc2)CCC1` [Example 1, N-((1-aminocyclobutyl)methyl)-4-(6-(5-fluoropyridin-3-yl)pyrazin-2-yl)benzamide, ditrifluoroacetic acid salt], the FaSSIF solubility in data set [4] (ditrifluoroacetic acid salt) is 429 µg/mL. In addition, in data set [1] (ditrifluoroacetic acid salt), the ED90 mean was found to be 1.28 mg/kg and the AUCED90 mean was 0.067 mg · h · mL^−1 · day^−1. Further, in data set [2], the solubility at 1 h is at least 124 µg/mL and the solubility kinetic at 1 h was at least 329 mM. Moreover, the “Average value pIC50” value in data set [3] (setting [11]) stood at 8.50. Moreover, the “Pf3D7 pIC50” value in data set [3] (setting [12]) is reported as 8.48-8.60.

Consider `NC1(CNC(=O)c2ccc(-c3cncc(-c4cncc(F)c4)n3)cc2)CCC1` [Example 3, N-((1-aminocyclobutyl)methyl)-4-(6-(5-fluoropyridin-3-yl)pyrazin-2-yl)benzamide, sulfuric acid salt], for which, in data set [2], the Solubility was at least 94.7 µg/mL. Besides, the IC50 is 3.16 nM in data set [3] (setting [7]) and 2.51 to 5.01 nM in data set [3] (setting [8]).
